PubChem BioAssay (NCI)
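Dose response: 5 concentrations. Exposure: 48 h. Format: 96-well plates. Endpoint: linear interpolation; highest concentration if not reached. Abbreviation: GI50, concentration required for 50% inhibition of growth. TGI: total growth inhibition.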

What was measured:
Test in all cases: inhibition of tumour cell growth, NCI panel, 48 h
SN12C renal = system: SN12C renal
K-562 leukemia = system: K-562 leukemia
MOLT-4 leukemia = system: MOLT-4 leukemia
OVCAR-4 ovarian = system: OVCAR-4 ovarian
DU-145 prostate = system: DU-145 prostate
SR leukemia = system: SR leukemia
SW-620 colon = system: SW-620 colon
UACC-62 melanoma = system: UACC-62 melanoma
NCI/ADR-RES ovarian = system: NCI/ADR-RES ovarian
HCT-15 colon = system: HCT-15 colon
HT29 colon = system: HT29 colon
CCRF-CEM leukemia = system: CCRF-CEM leukemia
OVCAR-5 ovarian = system: OVCAR-5 ovarian
A498 renal = system: A498 renal
ACHN renal = system: ACHN renal
SNB-75 CNS = system: SNB-75 CNS
TK-10 renal = system: TK-10 renal
SK-MEL-5 melanoma = system: SK-MEL-5 melanoma
OVCAR-3 ovarian = system: OVCAR-3 ovarian
MDA-MB-231 breast = system: MDA-MB-231 breast
MCF7 breast = system: MCF7 breast
A549 NSCLC = system: A549 NSCLC
HOP-62 NSCLC = system: HOP-62 NSCLC
PC-3 prostate = system: PC-3 prostate
LOX IMVI melanoma = system: LOX IMVI melanoma
HCC-2998 colon = system: HCC-2998 colon
SK-MEL-28 melanoma = system: SK-MEL-28 melanoma
SF-268 CNS = system: SF-268 CNS
NCI-H460 lung = system: NCI-H460 lung
786-0 renal = system: 786-0 renal
T-47D breast = system: T-47D breast
NCI-H522 lung = system: NCI-H522 lung
HOP-92 NSCLC = system: HOP-92 NSCLC
RXF 393 renal = system: RXF 393 renal
SK-OV-3 ovarian = system: SK-OV-3 ovarian
HL-60(TB) leukemia = system: HL-60(TB) leukemia
NCI-H23 lung = system: NCI-H23 lung
COLO 205 colon = system: COLO 205 colon
EKVX NSCLC = system: EKVX NSCLC
SF-295 CNS = system: SF-295 CNS
MDA-MB-435 = system: MDA-MB-435
U251 CNS = system: U251 CNS
HS 578T breast = system: HS 578T breast
MALME-3M melanoma = system: MALME-3M melanoma
M14 melanoma = system: M14 melanoma
UO-31 renal = system: UO-31 renal
OVCAR-8 ovarian = system: OVCAR-8 ovarian
SNB-19 CNS = system: SNB-19 CNS
SK-MEL-2 melanoma = system: SK-MEL-2 melanoma
UACC-257 melanoma = system: UACC-257 melanoma
SF-539 CNS = system: SF-539 CNS
KM12 colon = system: KM12 colon
IGROV1 ovarian = system: IGROV1 ovarian
NCI-H226 lung = system: NCI-H226 lung
BT-549 breast = system: BT-549 breast

CCCc1cn2c(/C=N/N=C(N)N)c(-c3cc([N+](=O)[O-])c(Cl)cc3Cl)nc2s1
TGI (SN12C renal): 3160 nM
TGI (K-562 leukemia): 2490 nM
TGI (MOLT-4 leukemia): 873 nM
TGI (OVCAR-4 ovarian): 2830 nM
TGI (DU-145 prostate): 3530 nM
TGI (SR leukemia): 2920 nM
TGI (SW-620 colon): 2970 nM
TGI (UACC-62 melanoma): 3150 nM
TGI (NCI/ADR-RES ovarian): 4310 nM
TGI (HCT-15 colon): 3020 nM
TGI (HT29 colon): 2460 nM
TGI (CCRF-CEM leukemia): 860 nM
TGI (OVCAR-5 ovarian): 3120 nM
TGI (A498 renal): 2880 nM
TGI (ACHN renal): 3160 nM
TGI (SNB-75 CNS): 3070 nM
TGI (TK-10 renal): 2330 nM

COC(=O)CCc1n(Cc2ccc3ccccc3c2)c2ccccc2[n+]1Cc1ccc2ccccc2c1
GI50 (SN12C renal): 833 nM
TGI (SN12C renal): 2190 nM
GI50 (SK-MEL-5 melanoma): 415 nM
TGI (SK-MEL-5 melanoma): 1560 nM
GI50 (OVCAR-3 ovarian): 682 nM
TGI (OVCAR-3 ovarian): 2150 nM
GI50 (MDA-MB-231 breast): 682 nM
TGI (MDA-MB-231 breast): 2190 nM
GI50 (MCF7 breast): 795 nM
TGI (MCF7 breast): 2340 nM
GI50 (K-562 leukemia): 379 nM
TGI (K-562 leukemia): 1630 nM
GI50 (MOLT-4 leukemia): 1130 nM
TGI (MOLT-4 leukemia): 2980 nM
GI50 (A549 NSCLC): 2920 nM
TGI (A549 NSCLC): 11900 nM
GI50 (HOP-62 NSCLC): 1660 nM
TGI (HOP-62 NSCLC): 3460 nM
GI50 (PC-3 prostate): 402 nM
TGI (PC-3 prostate): 1740 nM
GI50 (OVCAR-4 ovarian): 315 nM
TGI (OVCAR-4 ovarian): 1890 nM
GI50 (LOX IMVI melanoma): 557 nM
TGI (LOX IMVI melanoma): 1930 nM
GI50 (HCC-2998 colon): 910 nM
TGI (HCC-2998 colon): 2430 nM
GI50 (SK-MEL-28 melanoma): 800 nM
TGI (SK-MEL-28 melanoma): 2460 nM
GI50 (DU-145 prostate): 1450 nM
TGI (DU-145 prostate): 3340 nM
GI50 (SF-268 CNS): 1380 nM
TGI (SF-268 CNS): 2990 nM
GI50 (NCI-H460 lung): 1180 nM
TGI (NCI-H460 lung): 2700 nM
GI50 (786-0 renal): 1140 nM
TGI (786-0 renal): 2450 nM
GI50 (SR leukemia): 403 nM
TGI (SR leukemia): 2050 nM
GI50 (T-47D breast): 222 nM
TGI (T-47D breast): 2650 nM
GI50 (NCI-H522 lung): 440 nM
TGI (NCI-H522 lung): 1770 nM
GI50 (SW-620 colon): 1270 nM
TGI (SW-620 colon): 2850 nM
GI50 (UACC-62 melanoma): 361 nM
TGI (UACC-62 melanoma): 1590 nM
GI50 (HOP-92 NSCLC): 152 nM
TGI (HOP-92 NSCLC): 1120 nM
GI50 (NCI/ADR-RES ovarian): 18700 nM
TGI (NCI/ADR-RES ovarian): 65100 nM
GI50 (RXF 393 renal): 874 nM
TGI (RXF 393 renal): 2230 nM
GI50 (SK-OV-3 ovarian): 1890 nM
TGI (SK-OV-3 ovarian): 4850 nM
GI50 (HL-60(TB) leukemia): 207 nM
TGI (HL-60(TB) leukemia): 799 nM
GI50 (NCI-H23 lung): 583 nM
TGI (NCI-H23 lung): 2560 nM
GI50 (COLO 205 colon): 614 nM
TGI (COLO 205 colon): 2210 nM
GI50 (EKVX NSCLC): 1630 nM
TGI (EKVX NSCLC): 5630 nM
GI50 (SF-295 CNS): 1320 nM
TGI (SF-295 CNS): 2860 nM
GI50 (HCT-15 colon): 2710 nM
TGI (HCT-15 colon): 8080 nM
GI50 (HT29 colon): 571 nM
TGI (HT29 colon): 1970 nM
GI50 (MDA-MB-435): 462 nM
TGI (MDA-MB-435): 1800 nM
GI50 (OVCAR-5 ovarian): 1180 nM
TGI (OVCAR-5 ovarian): 2770 nM
GI50 (U251 CNS): 1040 nM
TGI (U251 CNS): 2300 nM
GI50 (A498 renal): 1530 nM
TGI (A498 renal): 3450 nM
GI50 (HS 578T breast): 1430 nM
TGI (HS 578T breast): 3470 nM
GI50 (MALME-3M melanoma): 1050 nM
TGI (MALME-3M melanoma): 2630 nM
GI50 (M14 melanoma): 524 nM
TGI (M14 melanoma): 2040 nM
GI50 (UO-31 renal): 2250 nM
TGI (UO-31 renal): 10200 nM
GI50 (OVCAR-8 ovarian): 1270 nM
TGI (OVCAR-8 ovarian): 3020 nM
GI50 (SNB-19 CNS): 582 nM
TGI (SNB-19 CNS): 1980 nM
GI50 (ACHN renal): 3710 nM
TGI (ACHN renal): 13100 nM
GI50 (SK-MEL-2 melanoma): 1230 nM
TGI (SK-MEL-2 melanoma): 2720 nM
GI50 (UACC-257 melanoma): 549 nM
TGI (UACC-257 melanoma): 2370 nM
GI50 (SNB-75 CNS): 930 nM
TGI (SNB-75 CNS): 2260 nM
GI50 (SF-539 CNS): 1070 nM
TGI (SF-539 CNS): 2450 nM
GI50 (KM12 colon): 685 nM
TGI (KM12 colon): 2120 nM
GI50 (IGROV1 ovarian): 441 nM
TGI (IGROV1 ovarian): 1900 nM
GI50 (TK-10 renal): 1490 nM
TGI (TK-10 renal): 2960 nM

Cc1ncc(C(=O)Nc2ccc(CN3CCN(C)CC3)c(C(F)(F)F)c2)cc1C#Cc1cnc(N)c2ccc(C#N)cc12
GI50 (SN12C renal): < 12.4 nM
TGI (SN12C renal): 5010 nM
GI50 (NCI-H226 lung): 34.5 nM
TGI (NCI-H226 lung): 593 nM
GI50 (OVCAR-3 ovarian): 94.9 nM
TGI (OVCAR-3 ovarian): 8090 nM
GI50 (MCF7 breast): 2040 nM
TGI (MCF7 breast): > 100000 nM
GI50 (BT-549 breast): 631 nM
TGI (BT-549 breast): > 100000 nM
GI50 (MOLT-4 leukemia): 55.9 nM
TGI (MOLT-4 leukemia): > 100000 nM
GI50 (HCC-2998 colon): 2290 nM
TGI (HCC-2998 colon): 24700 nM
GI50 (DU-145 prostate): 15.7 nM
TGI (DU-145 prostate): 2340 nM
GI50 (SF-268 CNS): 39.9 nM
TGI (SF-268 CNS): > 100000 nM
GI50 (SR leukemia): 60.7 nM
TGI (SR leukemia): > 100000 nM
GI50 (T-47D breast): 114 nM
TGI (T-47D breast): > 100000 nM
GI50 (NCI-H522 lung): 78.8 nM
TGI (NCI-H522 lung): > 100000 nM
GI50 (UACC-62 melanoma): < 10.8 nM
TGI (UACC-62 melanoma): 71.7 nM
GI50 (HOP-92 NSCLC): 16.5 nM
TGI (HOP-92 NSCLC): 78.3 nM
GI50 (NCI/ADR-RES ovarian): 1810 nM
TGI (NCI/ADR-RES ovarian): 5050 nM
GI50 (SK-OV-3 ovarian): 20 nM
TGI (SK-OV-3 ovarian): > 100000 nM
GI50 (HL-60(TB) leukemia): 400 nM
TGI (HL-60(TB) leukemia): > 100000 nM
GI50 (NCI-H23 lung): 95.9 nM
TGI (NCI-H23 lung): 3280 nM
GI50 (COLO 205 colon): 14.6 nM
TGI (COLO 205 colon): > 100000 nM
GI50 (EKVX NSCLC): 82.7 nM
TGI (EKVX NSCLC): 29600 nM
GI50 (SF-295 CNS): 54.5 nM
TGI (SF-295 CNS): 33100 nM
GI50 (HCT-15 colon): 48.5 nM
TGI (HCT-15 colon): 1500 nM
GI50 (UACC-257 melanoma): 53.8 nM
TGI (UACC-257 melanoma): 1610 nM
GI50 (SF-539 CNS): 79.6 nM
TGI (SF-539 CNS): 1450 nM
TGI (IGROV1 ovarian): 230 nM
GI50 (TK-10 renal): 57.2 nM
TGI (TK-10 renal): 2820 nM
